The compounds below were run against full-length ATR (Homo sapiens (Human), UniProt Q13535) (assay: ATR Inhibition Assay (radioactive-phosphate incorporation)). Settings: read-out: ATR Ki.
Format: biochemical
Method in brief: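 Ki(app) was derived by non-linear regression of background-corrected initial rates of 33P incorporation into an 800 μM target peptide, read by phosphocellulose filter scintillation counting. Reaction conditions: 5 nM full-length ATR, 10 μM [γ-33P]ATP, pH 7.5 Tris buffer with MgCl2 and DTT, 25 °C, 10-min preincubation, 24 h run.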

Chain of full-length ATR (Q13535 whole entry): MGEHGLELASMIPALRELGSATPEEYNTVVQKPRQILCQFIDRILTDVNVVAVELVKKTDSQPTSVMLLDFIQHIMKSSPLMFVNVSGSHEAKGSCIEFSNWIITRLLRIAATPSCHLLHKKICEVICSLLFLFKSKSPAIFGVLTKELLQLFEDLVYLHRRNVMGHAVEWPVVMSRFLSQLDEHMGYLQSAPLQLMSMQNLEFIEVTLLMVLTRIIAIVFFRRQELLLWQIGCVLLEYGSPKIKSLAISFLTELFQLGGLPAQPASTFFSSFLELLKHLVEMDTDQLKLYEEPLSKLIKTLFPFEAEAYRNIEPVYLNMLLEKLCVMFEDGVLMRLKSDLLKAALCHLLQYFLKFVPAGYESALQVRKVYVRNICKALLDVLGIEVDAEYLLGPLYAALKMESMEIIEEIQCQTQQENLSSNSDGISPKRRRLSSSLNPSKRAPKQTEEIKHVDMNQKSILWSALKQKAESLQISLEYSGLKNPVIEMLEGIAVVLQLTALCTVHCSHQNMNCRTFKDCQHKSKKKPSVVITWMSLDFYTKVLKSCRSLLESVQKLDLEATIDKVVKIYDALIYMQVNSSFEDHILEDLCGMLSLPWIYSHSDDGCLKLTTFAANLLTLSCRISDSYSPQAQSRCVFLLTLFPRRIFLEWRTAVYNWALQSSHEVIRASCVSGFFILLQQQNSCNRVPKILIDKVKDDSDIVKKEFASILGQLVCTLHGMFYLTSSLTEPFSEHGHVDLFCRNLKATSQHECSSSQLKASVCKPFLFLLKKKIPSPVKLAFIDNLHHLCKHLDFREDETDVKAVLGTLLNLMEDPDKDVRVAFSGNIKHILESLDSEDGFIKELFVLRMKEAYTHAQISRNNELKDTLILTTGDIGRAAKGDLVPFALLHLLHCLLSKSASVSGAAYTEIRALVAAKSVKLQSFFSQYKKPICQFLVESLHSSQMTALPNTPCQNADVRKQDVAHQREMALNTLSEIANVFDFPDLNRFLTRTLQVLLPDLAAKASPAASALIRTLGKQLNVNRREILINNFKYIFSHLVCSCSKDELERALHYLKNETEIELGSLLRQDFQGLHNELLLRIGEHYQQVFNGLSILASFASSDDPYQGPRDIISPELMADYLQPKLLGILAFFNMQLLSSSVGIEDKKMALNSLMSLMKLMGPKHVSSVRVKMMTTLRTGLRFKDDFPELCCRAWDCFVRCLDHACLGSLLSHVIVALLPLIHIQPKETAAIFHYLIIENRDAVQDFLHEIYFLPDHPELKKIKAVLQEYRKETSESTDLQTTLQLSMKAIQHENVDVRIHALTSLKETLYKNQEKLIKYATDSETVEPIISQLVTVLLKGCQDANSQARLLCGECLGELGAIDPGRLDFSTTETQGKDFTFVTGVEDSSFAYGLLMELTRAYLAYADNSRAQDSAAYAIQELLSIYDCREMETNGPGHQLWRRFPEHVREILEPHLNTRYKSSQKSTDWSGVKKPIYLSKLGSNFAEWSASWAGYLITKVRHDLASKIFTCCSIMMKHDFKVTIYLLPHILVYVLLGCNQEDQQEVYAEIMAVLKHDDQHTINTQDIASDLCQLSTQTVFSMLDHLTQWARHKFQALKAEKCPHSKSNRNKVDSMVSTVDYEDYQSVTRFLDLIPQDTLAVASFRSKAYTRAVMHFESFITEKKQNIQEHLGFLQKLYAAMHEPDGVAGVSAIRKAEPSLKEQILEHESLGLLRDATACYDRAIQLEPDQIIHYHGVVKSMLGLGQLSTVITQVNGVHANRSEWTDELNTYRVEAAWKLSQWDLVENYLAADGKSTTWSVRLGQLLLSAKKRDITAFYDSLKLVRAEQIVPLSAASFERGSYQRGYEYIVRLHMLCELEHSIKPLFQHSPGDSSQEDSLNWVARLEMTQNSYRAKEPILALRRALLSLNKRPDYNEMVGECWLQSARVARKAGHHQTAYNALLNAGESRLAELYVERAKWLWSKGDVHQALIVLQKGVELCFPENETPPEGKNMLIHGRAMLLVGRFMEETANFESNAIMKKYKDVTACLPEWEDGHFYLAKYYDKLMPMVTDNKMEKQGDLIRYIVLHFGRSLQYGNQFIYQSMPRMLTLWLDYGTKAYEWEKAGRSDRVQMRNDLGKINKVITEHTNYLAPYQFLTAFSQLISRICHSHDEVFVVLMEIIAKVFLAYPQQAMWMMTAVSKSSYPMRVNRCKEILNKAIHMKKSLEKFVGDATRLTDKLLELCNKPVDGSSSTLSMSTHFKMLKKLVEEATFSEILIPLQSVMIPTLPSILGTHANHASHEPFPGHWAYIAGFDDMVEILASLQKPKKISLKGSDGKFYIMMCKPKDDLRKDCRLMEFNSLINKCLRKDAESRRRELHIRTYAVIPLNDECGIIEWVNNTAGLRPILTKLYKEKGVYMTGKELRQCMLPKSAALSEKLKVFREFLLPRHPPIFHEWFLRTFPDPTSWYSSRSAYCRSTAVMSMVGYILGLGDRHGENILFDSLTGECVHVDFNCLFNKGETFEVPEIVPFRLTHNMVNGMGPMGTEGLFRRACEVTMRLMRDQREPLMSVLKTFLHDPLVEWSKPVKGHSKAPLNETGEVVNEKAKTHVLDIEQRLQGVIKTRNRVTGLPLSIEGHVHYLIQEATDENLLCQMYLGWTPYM

`CNCc1ccc(-c2nnc(-c3nc(-c4ccc(S(=O)(=O)C(C)C)cc4)cnc3N)o2)c(OC)c1` [IA-171, 5-(4-isopropylsulfonylphenyl)-3-[5-[2-methoxy-4-(methylaminomethyl)phenyl]-1,3,4-oxadiazol-2-yl]pyrazin-2-amine] and `CC(C)S(=O)(=O)c1ccc(-c2cnc(N)c(-c3nnc(-c4cccc(CN(C)C)c4)o3)n2)cc1` [IA-204, 3-[5-[3-(dimethylaminomethyl)phenyl]-1,3,4-oxadiazol-2-yl]-5-(4-isopropylsulfonylphenyl)pyrazin-2-amine] cannot be ordered by Ki: ≤ 10 nM for the first, 10 to 100 nM for the second.

`CC(C)S(=O)(=O)c1ccc(-c2cnc(N)c(-c3nnc(-c4ccc(CN)s4)o3)n2)cc1` [IA-173, 3-[5-[5-(aminomethyl)-2-thienyl]-1,3,4-oxadiazol-2-yl]-5-(4-isopropylsulfonylphenyl)pyrazin-2-amine] and `CC(C)S(=O)(=O)c1ccc(-c2cnc(N)c(-c3nnc(-c4ccc(N)cc4)o3)n2)cc1` [IA-201, 3-[5-(4-aminophenyl)-1,3,4-oxadiazol-2-yl]-5-(4-isopropylsulfonylphenyl)pyrazin-2-amine] cannot be ordered by Ki: ≤ 10 nM for the first, ≤ 10 nM for the second.

`Nc1ncc(-c2ccccc2C(F)(F)F)nc1-c1nnc(-c2ccccc2)o1` [IA-174, 3-(5-phenyl-1,3,4-oxadiazol-2-yl)-5-[2(-trifluoromethyl)phenyl]pyrazin-2-amine] and `Nc1ncc(-c2ccccc2Br)nc1-c1nnc(-c2ccccc2)o1` [IA-176, 5-(2-bromophenyl)-3-(5-phenyl-1,3,4-oxadiazol-2-yl)pyrazin-2-amine] fall in the same range of Ki: 100 to 5000 nM for the first, 100 to 5000 nM for the second.

`CN(C)C(=O)c1ccc(-c2cnc(N)c(-c3nnc(-c4ccccc4OCCNC(=O)OC(C)(C)C)o3)n2)cc1` [IA-175, tert-butyl N-[2-[2-[5-[3-amino-6-[4-(dimethylcarbamoyl)phenyl]pyrazin-2-yl]-1,3,4-oxadiazol-2-yl]phenoxy]ethyl]carbamate] and `CN(C)C(=O)c1ccc(-c2cnc(N)c(-c3nnc(-c4ccccc4OCCO)o3)n2)cc1` [IA-196, 4-[5-amino-6-[5-[2-(2-hydroxyethoxy)phenyl]-1,3,4-oxadiazol-2-yl]pyrazin-2-yl]-N,N-dimethyl-benzamide] cannot be ordered by Ki: ≤ 10 nM for the first, ≤ 10 nM for the second.

First: CC(=O)Nc1nnc(-c2nc(-c3ccc(S(=O)(=O)C(C)C)cc3)cnc2N)o1 [IA-177, N-[5-[3-amino-6-(4-isopropylsulfonylphenyl)pyrazin-2-yl]-1,3,4-oxadiazol-2-yl]acetamide]
Second: CC(C)S(=O)(=O)c1ccc(-c2cnc(N)c(-c3nnc(NC4CCCNC4)o3)n2)cc1 (centres unmarked) [IA-199, 5-[3-amino-6-(4-isopropylsulfonylphenyl)pyrazin-2-yl]-N-(3-piperidyl)-1,3,4-oxadiazol-2-amine]
The Ki of the first is lower: 10 to 100 nM for the first, 100 to 5000 nM for the second.

`CC(C)S(=O)(=O)c1ccc(-c2cnc(N)c(-c3nnc(-c4ccc(CNCCO)cc4)o3)n2)cc1` [IA-178, 2-(4-(5-(3-amino-6-(4-(isopropylsulfonyl)phenyl)pyrazin-2-yl)-1,3,4-oxadiazol-2-yl)benzylamino)ethanol] and `CC(C)S(=O)(=O)c1ccc(-c2cnc(N)c(-c3nnc(-c4ccc(O)cc4)o3)n2)cc1` [IA-193, 4-[5-[3-amino-6-(4-isopropylsulfonylphenyl)pyrazin-2-yl]-1,3,4-oxadiazol-2-yl]phenol] cannot be ordered by Ki: ≤ 10 nM for the first, ≤ 10 nM for the second.

Compared with `Cc1ccsc1-c1nnc(-c2nc(-c3ccccc3[S+](C)[O-])cnc2N)o1` (centres unmarked) [IA-179, 5-(2-methylsulfinylphenyl)-3-[5-(3-methyl-2-thienyl)-1,3,4-oxadiazol-2-yl]pyrazin-2-amine], `CS(=O)(=O)c1ccccc1-c1cnc(N)c(-c2nnc(-c3ccccc3)o2)n1` [IA-190, 5-(2-methylsulfonylphenyl)-3-(5-phenyl-1,3,4-oxadiazol-2-yl)pyrazin-2-amine] is higher in Ki: ≤ 10 nM for the first, 100 to 5000 nM for the second.

`CN(C)C(=O)c1ccc(-c2cnc(N)c(-c3nnc(-c4cscn4)o3)n2)cc1` [IA-180, 4-[5-amino-6-(5-thiazol-4-yl-1,3,4-oxadiazol-2-yl)pyrazin-2-yl]-N,N-dimethyl-benzamide] and `CN(C)C(=O)c1ccc(-c2cnc(N)c(-c3nnc(-c4sccc4C#N)o3)n2)cc1` [IA-189, 4-[5-amino-6-[5-(3-cyano-2-thienyl)-1,3,4-oxadiazol-2-yl]pyrazin-2-yl]-N,N-dimethyl-benzamide] fall in the same range of Ki: 10 to 100 nM for the first, 10 to 100 nM for the second.

Compared with `Cc1ccsc1-c1nnc(-c2nc(-c3ccc(C(=O)N4CCCNCC4)cc3C#N)cnc2N)o1` [IA-181, 2-(5-amino-6-(5-(3-methylthiophen-2-yl)-1,3,4-oxadiazol-2-yl)pyrazin-2-yl)-5-(1,4-diazepane-1-carbonyl)benzonitrile], `Nc1ncc(-c2ccc(N3CCNCC3)nc2)nc1-c1nnc(-c2ccccc2)o1` [IA-186, 3-(5-phenyl-1,3,4-oxadiazol-2-yl)-5-(6-piperazin-1-yl-3-pyridyl)pyrazin-2-amine] is higher in Ki: ≤ 10 nM for the first, 100 to 5000 nM for the second.

`Cc1cccc(-c2cnc(N)c(-c3nnc(-c4ccccc4)o3)n2)c1` [IA-182, 5-(m-tolyl)-3-(5-phenyl-1,3,4-oxadiazol-2-yl)pyrazin-2-amine] and `Nc1ncc(-c2cccc(CO)c2)nc1-c1nnc(-c2ccccc2)o1` [IA-202, [3-[5-amino-6-(5-phenyl-1,3,4-oxadiazol-2-yl)pyrazin-2-yl]phenyl]methanol] fall in the same range of Ki: 100 to 5000 nM for the first, 100 to 5000 nM for the second.

Compared with `CCSc1ccccc1-c1cnc(N)c(-c2nnc(-c3ccccc3)o2)n1` [IA-184, 5-(2-ethylsulfanylphenyl)-3-(5-phenyl-1,3,4-oxadiazol-2-yl)pyrazin-2-amine], `C#Cc1ccccc1-c1cnc(N)c(-c2nnc(-c3ccccc3)o2)n1` [IA-194, 5-(2-ethynylphenyl)-3-(5-phenyl-1,3,4-oxadiazol-2-yl)pyrazin-2-amine] is higher in Ki: 10 to 100 nM for the first, 100 to 5000 nM for the second. The first binds more tightly here.

`CC(C)S(=O)(=O)c1ccc(-c2cnc(N)c(-c3nnc(-c4cccc(C5CNC5)c4)o3)n2)cc1` [IA-185, 3-[5-[3-(azetidin-3-yl)phenyl]-1,3,4-oxadiazol-2-yl]-5-(4-isopropylsulfonylphenyl)pyrazin-2-amine] and `CC(C)S(=O)(=O)c1ccc(-c2cnc(N)c(-c3nnc(-c4cccc(C#N)c4)o3)n2)cc1` [IA-187, 3-[5-[3-amino-6-(4-isopropylsulfonylphenyl)pyrazin-2-yl]-1,3,4-oxadiazol-2-yl]benzonitrile] fall in the same range of Ki: 10 to 100 nM for the first, 10 to 100 nM for the second.

`CC(C)S(=O)(=O)c1ccc(-c2cnc(N)c(-c3nnc(N4CCC(N)C4)o3)n2)cc1` (centres unmarked) [IA-188, 3-[5-(3-aminopyrrolidin-1-yl)-1,3,4-oxadiazol-2-yl]-5-(4-isopropylsulfonylphenyl)pyrazin-2-amine] and `CC(C)S(=O)(=O)c1ccc(-c2cnc(N)c(-c3nnc(N4CCCC(N)C4)o3)n2)cc1` (centres unmarked) [IA-206, 3-[5-(3-amino-1-piperidyl)-1,3,4-oxadiazol-2-yl]-5-(4-isopropylsulfonylphenyl)pyrazin-2-amine] fall in the same range of Ki: 100 to 5000 nM for the first, 100 to 5000 nM for the second.

`CN(C)CCS(=O)(=O)c1ccc(-c2cnc(N)c(-c3nnc(-c4ccc(O)cc4)o3)n2)cc1` [IA-191, 4-[5-[3-amino-6-[4-(2-dimethylaminoethylsulfonyl)phenyl]pyrazin-2-yl]-1,3,4-oxadiazol-2-yl]phenol] and `CNC(=N)c1ccc(-c2nnc(-c3nc(-c4ccc(S(=O)(=O)C(C)C)cc4)cnc3N)o2)cc1` [IA-208, 4-[5-[3-amino-6-(4-isopropylsulfonylphenyl)pyrazin-2-yl]-1,3,4-oxadiazol-2-yl]-N-methyl-benzamidine] cannot be ordered by Ki: ≤ 10 nM for the first, ≤ 10 nM for the second.

First: CN(C)C(=O)c1ccc(-c2cnc(N)c(-c3nnc(N4CCC4)o3)n2)cc1 [IA-192, 4-[5-amino-6-[5-(azetidin-1-yl)-1,3,4-oxadiazol-2-yl]pyrazin-2-yl]-N,N-dimethyl-benzamide]
Second: CN(C)C(=O)c1ccc(-c2cnc(N)c(-c3nnc(-c4ccccc4I)o3)n2)cc1 [IA-205, 4-[5-amino-6-[5-(2-iodophenyl)-1,3,4-oxadiazol-2-yl]pyrazin-2-yl]-N,N-dimethyl-benzamide]
The Ki of the first is higher: 100 to 5000 nM for the first, ≤ 10 nM for the second. The second binds more tightly here.

`COc1cccc(-c2nnc(-c3nc(-c4ccc(C(=O)N(C)C)cc4)cnc3N)o2)c1` [IA-195, 4-[5-amino-6-[5-(3-methoxyphenyl)-1,3,4-oxadiazol-2-yl]pyrazin-2-yl]-N,N-dimethyl-benzamide] and `CN(C)C(=O)c1ccc(-c2cnc(N)c(-c3nnc(-c4cccc(CO)c4)o3)n2)cc1` [IA-198, 4-[5-amino-6-[5-[3-(hydroxymethyl)phenyl]-1,3,4-oxadiazol-2-yl]pyrazin-2-yl]-N,N-dimethyl-benzamide] fall in the same range of Ki: 10 to 100 nM for the first, 10 to 100 nM for the second.

Compared with `Nc1ncc(-c2ccc(S(=O)(=O)C3CCNCC3)cc2)nc1-c1nnc(-c2ccccc2)o1` [IA-197, 3-(5-phenyl-1,3,4-oxadiazol-2-yl)-5-[4-(4-piperidylsulfonyl)phenyl]pyrazin-2-amine], `CCS(=O)(=O)c1ccccc1-c1cnc(N)c(-c2nnc(-c3ccccc3)o2)n1` [IA-203, 5-(2-ethylsulfonylphenyl)-3-(5-phenyl-1,3,4-oxadiazol-2-yl)pyrazin-2-amine] is higher in Ki: ≤ 10 nM for the first, 100 to 5000 nM for the second.

Compared with `CN1CCN(c2ccc(-c3cnc(N)c(-c4nnc(-c5ccccc5)o4)n3)cn2)CC1` [IA-200, 5-(6-(4-methylpiperazin-1-yl)pyridin-3-yl)-3-(5-phenyl-1,3,4-oxadiazol-2-yl)pyrazin-2-amine], `CCn1cc(-c2cnc(N)c(-c3nnc(-c4ccccc4)o3)n2)cn1` [IA-210, 5-(1-ethylpyrazol-4-yl)-3-(5-phenyl-1,3,4-oxadiazol-2-yl)pyrazin-2-amine] is lower in Ki: 100 to 5000 nM for the first, 10 to 100 nM for the second. The second binds more tightly here.

First: Nc1ncc(-c2ccccc2-c2cnco2)nc1-c1nnc(-c2ccccc2)o1 [IA-207, 5-(2-oxazol-5-ylphenyl)-3-(5-phenyl-1,3,4-oxadiazol-2-yl)pyrazin-2-amine]
Second: CN(C)CCNc1nccc(-c2cnc(N)c(-c3nnc(-c4ccccc4)o3)n2)c1C#N [IA-209, 4-[5-amino-6-(5-phenyl-1,3,4-oxadiazol-2-yl)pyrazin-2-yl]-2-(2-dimethylaminoethylamino)pyridine-3-carbonitrile]
The Ki of the first is higher: 100 to 5000 nM for the first, 10 to 100 nM for the second.
